Laboratory results: ChEMBL document CHEMBL4330132, “5-Keto-3-cyano-2,4-diaminothiophenes as selective maternal embryonic leucine zipper kinase inhibitors” (Bioorg Med Chem Lett, 2019)

Tests used:
[1] = molecular target: Tyrosine-protein kinase JAK1 (Homo sapiens) (UniProt P23458); test: Binding affinity to wild-type human partial length JAK1 JH1 catalytic domain (V856 to K1154 residues) expressed in bacterial expression system assessed as residual binding level at 1 uM by Kinomescan method relative to control
[2] = tested on: Tyrosine-protein kinase ABL1 (Homo sapiens), P00519 [F317L]; test: Binding affinity to human phosphorylated ABL1 F317L mutant (S229 to K512 residues) expressed in mammalian expression system assessed as residual binding level at 1 uM by Kinomescan method relative to control
[3] = tested on: Receptor-type tyrosine-protein kinase FLT3 (Homo sapiens), P36888 [D835Y]; test: Binding affinity to human partial length FLT3 D835Y mutant (Q580 to Y969 residues) expressed in bacterial expression system assessed as residual binding level at 1 uM by Kinomescan method relative to control
[4] = molecular target: Ribosomal protein S6 kinase alpha-1 (Homo sapiens) (UniProt Q15418); test: Binding affinity to wild-type human partial length N-terminal RSK1 Kinase domain 1 (M1 to E388 residues) expressed in bacterial expression system assessed as residual binding level at 1 uM by Kinomescan method relative to control
[5] = molecular target: Proto-oncogene tyrosine-protein kinase receptor Ret (Homo sapiens) (UniProt P07949); test: Binding affinity to wild-type human partial length RET (E713 to D1014 residues) expressed in bacterial expression system assessed as residual binding level at 1 uM by Kinomescan method relative to control
[6] = molecular target: Proto-oncogene tyrosine-protein kinase Src (Homo sapiens) (UniProt P12931); test: Binding affinity to wild-type human partial length SRC (L240 to L536 residues) expressed in bacterial expression system assessed as residual binding level at 1 uM by Kinomescan method relative to control
[7] = molecular target: TRAF2 and NCK-interacting protein kinase (Homo sapiens) (UniProt Q9UKE5); test: Binding affinity to wild-type human partial length TNIK (D4 to K311 residues) expressed in bacterial expression system assessed as residual binding level at 1 uM by Kinomescan method relative to control
Sequence of TRAF2 and NCK-interacting protein kinase (Homo sapiens) (Q9UKE5 whole entry, looked up, the tested form may be a part): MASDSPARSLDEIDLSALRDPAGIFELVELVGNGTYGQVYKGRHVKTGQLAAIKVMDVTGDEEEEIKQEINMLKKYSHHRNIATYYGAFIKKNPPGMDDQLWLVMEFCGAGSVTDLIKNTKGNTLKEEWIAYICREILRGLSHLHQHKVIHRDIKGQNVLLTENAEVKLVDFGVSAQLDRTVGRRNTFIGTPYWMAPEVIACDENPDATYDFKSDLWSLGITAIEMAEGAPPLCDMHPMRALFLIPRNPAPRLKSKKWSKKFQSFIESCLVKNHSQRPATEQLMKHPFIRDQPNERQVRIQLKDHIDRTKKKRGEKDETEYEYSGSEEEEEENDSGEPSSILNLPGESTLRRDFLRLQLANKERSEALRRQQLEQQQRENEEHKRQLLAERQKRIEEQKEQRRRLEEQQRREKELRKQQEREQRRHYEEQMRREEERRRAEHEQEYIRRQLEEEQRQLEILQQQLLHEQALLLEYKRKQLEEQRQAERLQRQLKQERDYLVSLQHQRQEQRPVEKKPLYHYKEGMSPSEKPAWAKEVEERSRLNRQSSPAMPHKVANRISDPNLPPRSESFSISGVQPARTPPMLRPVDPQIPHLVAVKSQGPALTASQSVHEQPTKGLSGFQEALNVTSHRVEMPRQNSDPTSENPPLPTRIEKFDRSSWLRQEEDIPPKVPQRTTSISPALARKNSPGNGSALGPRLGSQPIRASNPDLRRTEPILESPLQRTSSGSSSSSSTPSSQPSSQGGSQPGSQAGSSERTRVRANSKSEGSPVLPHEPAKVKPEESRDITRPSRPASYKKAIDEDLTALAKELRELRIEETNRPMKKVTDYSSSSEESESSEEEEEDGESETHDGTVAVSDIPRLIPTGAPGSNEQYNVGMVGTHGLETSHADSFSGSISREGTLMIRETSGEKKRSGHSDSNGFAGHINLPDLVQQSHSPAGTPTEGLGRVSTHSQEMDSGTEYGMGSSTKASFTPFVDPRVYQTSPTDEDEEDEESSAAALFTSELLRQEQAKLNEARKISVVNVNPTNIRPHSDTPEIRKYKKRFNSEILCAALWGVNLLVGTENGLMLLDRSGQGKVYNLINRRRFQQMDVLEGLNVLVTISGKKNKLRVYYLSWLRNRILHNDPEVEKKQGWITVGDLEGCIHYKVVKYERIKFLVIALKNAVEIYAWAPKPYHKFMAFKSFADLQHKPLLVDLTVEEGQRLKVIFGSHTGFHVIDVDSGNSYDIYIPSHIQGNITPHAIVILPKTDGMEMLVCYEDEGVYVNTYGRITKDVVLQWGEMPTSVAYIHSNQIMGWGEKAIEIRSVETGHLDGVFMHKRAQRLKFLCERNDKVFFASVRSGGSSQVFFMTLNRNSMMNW

[8] = molecular target: Tyrosine-protein kinase BTK (Homo sapiens) (UniProt Q06187); test: Binding affinity to wild-type human full length BTK (M1 to S659 residues) expressed in mammalian expression system assessed as residual binding level at 1 uM by Kinomescan method relative to control
Sequence of Tyrosine-protein kinase BTK (Homo sapiens) (Q06187 whole entry, the tested form may be a part): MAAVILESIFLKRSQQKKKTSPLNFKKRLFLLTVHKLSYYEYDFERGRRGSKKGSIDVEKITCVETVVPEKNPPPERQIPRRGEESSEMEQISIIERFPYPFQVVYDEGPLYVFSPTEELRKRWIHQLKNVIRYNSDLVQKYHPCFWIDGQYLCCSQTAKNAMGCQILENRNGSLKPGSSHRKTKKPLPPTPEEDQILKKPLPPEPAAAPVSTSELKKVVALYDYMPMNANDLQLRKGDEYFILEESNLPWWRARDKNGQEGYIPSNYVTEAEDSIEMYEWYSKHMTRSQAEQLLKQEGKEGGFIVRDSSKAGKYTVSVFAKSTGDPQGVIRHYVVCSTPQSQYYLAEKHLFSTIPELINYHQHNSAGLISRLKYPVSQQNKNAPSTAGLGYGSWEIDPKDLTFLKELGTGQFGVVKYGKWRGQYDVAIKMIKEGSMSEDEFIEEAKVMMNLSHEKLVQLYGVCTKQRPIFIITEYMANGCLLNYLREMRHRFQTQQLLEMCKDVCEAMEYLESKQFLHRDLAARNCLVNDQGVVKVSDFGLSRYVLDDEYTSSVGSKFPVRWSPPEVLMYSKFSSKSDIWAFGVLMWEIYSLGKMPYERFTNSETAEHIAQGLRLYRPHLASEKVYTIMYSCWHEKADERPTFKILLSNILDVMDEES

[9] = molecular target: Mitogen-activated protein kinase kinase kinase 6 (Homo sapiens) (UniProt O95382); test: Binding affinity to wild-type human partial length ASK2 (M278 to R972 residues) expressed in mammalian expression system assessed as residual binding level at 1 uM by Kinomescan method relative to control
[10] = tested on: Phosphatidylinositol 4,5-bisphosphate 3-kinase catalytic subunit alpha isoform (Homo sapiens), P42336 [M1043I]; test: Binding affinity to human partial length PIK3CA M1043I mutant (R108 to N1068 residues) expressed in mammalian expression system assessed as residual binding level at 1 uM by Kinomescan method relative to control
[11] = molecular target: Mitogen-activated protein kinase 14 (Homo sapiens) (UniProt Q16539); test: Binding affinity to wild-type human full length p38-alpha (M1 to S360 residues) expressed in bacterial expression system assessed as residual binding level at 1 uM by Kinomescan method relative to control
[12] = molecular target: Tyrosine-protein kinase Tec (Homo sapiens) (UniProt P42680); test: Binding affinity to wild-type human partial length TEC (L341 to D620 residues) expressed in bacterial expression system assessed as residual binding level at 1 uM by Kinomescan method relative to control
Sequence of Tyrosine-protein kinase Tec (Homo sapiens) (P42680 whole entry, the tested form may be a part): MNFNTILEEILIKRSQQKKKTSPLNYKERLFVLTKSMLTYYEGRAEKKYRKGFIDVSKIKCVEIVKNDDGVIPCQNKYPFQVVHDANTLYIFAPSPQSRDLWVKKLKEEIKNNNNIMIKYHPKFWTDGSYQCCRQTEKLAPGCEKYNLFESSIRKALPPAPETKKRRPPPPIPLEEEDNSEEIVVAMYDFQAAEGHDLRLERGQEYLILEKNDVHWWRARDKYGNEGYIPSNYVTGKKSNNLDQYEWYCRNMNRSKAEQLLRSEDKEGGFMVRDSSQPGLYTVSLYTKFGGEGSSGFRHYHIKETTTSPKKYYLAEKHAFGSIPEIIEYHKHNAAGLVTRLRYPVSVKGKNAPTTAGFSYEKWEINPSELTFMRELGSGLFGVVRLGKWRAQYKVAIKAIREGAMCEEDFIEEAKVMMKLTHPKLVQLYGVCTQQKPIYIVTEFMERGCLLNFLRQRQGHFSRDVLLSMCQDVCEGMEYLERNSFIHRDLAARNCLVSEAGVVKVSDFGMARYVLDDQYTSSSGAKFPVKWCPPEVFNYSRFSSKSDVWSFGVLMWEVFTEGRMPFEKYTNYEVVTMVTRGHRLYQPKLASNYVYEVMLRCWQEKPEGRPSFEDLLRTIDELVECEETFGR

[13] = molecular target: Tyrosine-protein kinase Fyn (Homo sapiens) (UniProt P06241); test: Binding affinity to wild-type human partial length FYN (T243 to L534 residues) expressed in bacterial expression system assessed as residual binding level at 1 uM by Kinomescan method relative to control
[14] = molecular target: Hormonally up-regulated neu tumor-associated kinase (Homo sapiens) (UniProt P57058); test: Binding affinity to wild-type human partial length HUNK (A31 to K354 residues) expressed in bacterial expression system assessed as residual binding level at 1 uM by Kinomescan method relative to control
[15] = tested on: Receptor-type tyrosine-protein kinase FLT3 (Homo sapiens), P36888 [N841I]; test: Binding affinity to human partial length FLT3 N841I mutant (V592 to Y969 residues) expressed in bacterial expression system assessed as residual binding level at 1 uM by Kinomescan method relative to control
[16] = molecular target: Calcium-dependent protein kinase 1 (Plasmodium falciparum) (UniProt P62344); test: Binding affinity to wild-type Plasmodium falciparum full length CDPK1 (M1 to S524 residues) expressed in mammalian expression system assessed as residual binding level at 1 uM by Kinomescan method relative to control
Sequence of Calcium-dependent protein kinase 1 (Plasmodium falciparum) (P62344 2-524 limits assumed): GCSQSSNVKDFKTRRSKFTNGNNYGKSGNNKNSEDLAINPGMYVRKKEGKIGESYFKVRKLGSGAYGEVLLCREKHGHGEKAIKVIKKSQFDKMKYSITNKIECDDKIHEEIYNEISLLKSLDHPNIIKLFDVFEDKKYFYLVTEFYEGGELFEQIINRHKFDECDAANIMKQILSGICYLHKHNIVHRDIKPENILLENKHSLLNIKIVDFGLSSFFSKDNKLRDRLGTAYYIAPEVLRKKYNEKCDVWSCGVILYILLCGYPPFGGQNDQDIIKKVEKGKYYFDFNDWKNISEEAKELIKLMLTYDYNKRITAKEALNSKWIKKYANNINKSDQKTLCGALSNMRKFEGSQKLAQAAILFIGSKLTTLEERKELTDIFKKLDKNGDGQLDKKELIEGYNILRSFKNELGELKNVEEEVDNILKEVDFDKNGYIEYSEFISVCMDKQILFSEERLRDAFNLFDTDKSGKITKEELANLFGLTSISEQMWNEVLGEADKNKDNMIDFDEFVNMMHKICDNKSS

[17] = tested on: Epidermal growth factor receptor (Homo sapiens), P00533 [G719S]; test: Binding affinity to human partial length EGFR G719S mutant (R669 to V1011 residues) expressed in bacterial expression system assessed as residual binding level at 1 uM by Kinomescan method relative to control
[18] = molecular target: Serine/threonine-protein kinase NIM1 (Homo sapiens) (UniProt Q8IY84); test: Binding affinity to wild-type human partial length NIM1 (Q44 to N355 residues) expressed in mammalian expression system assessed as residual binding level at 1 uM by Kinomescan method relative to control
[19] = tested on: Epidermal growth factor receptor (Homo sapiens), P00533 [UNDEFINED MUTATION]; test: Binding affinity to human partial length EGFR S752-I759del mutant expressed in bacterial expression system assessed as residual binding level at 1 uM by Kinomescan method relative to control
[20] = tested on: Phosphatidylinositol 4,5-bisphosphate 3-kinase catalytic subunit alpha isoform (Homo sapiens), P42336 [E542K]; test: Binding affinity to human partial length PIK3CA E542K mutant (R108 to N1068 residues) expressed in mammalian expression system assessed as residual binding level at 1 uM by Kinomescan method relative to control
Sequence of Phosphatidylinositol 4,5-bisphosphate 3-kinase catalytic subunit alpha isoform (Homo sapiens), P42336 [E542K] (P42336 whole entry E542K, the tested form may be a part, canonical isoform): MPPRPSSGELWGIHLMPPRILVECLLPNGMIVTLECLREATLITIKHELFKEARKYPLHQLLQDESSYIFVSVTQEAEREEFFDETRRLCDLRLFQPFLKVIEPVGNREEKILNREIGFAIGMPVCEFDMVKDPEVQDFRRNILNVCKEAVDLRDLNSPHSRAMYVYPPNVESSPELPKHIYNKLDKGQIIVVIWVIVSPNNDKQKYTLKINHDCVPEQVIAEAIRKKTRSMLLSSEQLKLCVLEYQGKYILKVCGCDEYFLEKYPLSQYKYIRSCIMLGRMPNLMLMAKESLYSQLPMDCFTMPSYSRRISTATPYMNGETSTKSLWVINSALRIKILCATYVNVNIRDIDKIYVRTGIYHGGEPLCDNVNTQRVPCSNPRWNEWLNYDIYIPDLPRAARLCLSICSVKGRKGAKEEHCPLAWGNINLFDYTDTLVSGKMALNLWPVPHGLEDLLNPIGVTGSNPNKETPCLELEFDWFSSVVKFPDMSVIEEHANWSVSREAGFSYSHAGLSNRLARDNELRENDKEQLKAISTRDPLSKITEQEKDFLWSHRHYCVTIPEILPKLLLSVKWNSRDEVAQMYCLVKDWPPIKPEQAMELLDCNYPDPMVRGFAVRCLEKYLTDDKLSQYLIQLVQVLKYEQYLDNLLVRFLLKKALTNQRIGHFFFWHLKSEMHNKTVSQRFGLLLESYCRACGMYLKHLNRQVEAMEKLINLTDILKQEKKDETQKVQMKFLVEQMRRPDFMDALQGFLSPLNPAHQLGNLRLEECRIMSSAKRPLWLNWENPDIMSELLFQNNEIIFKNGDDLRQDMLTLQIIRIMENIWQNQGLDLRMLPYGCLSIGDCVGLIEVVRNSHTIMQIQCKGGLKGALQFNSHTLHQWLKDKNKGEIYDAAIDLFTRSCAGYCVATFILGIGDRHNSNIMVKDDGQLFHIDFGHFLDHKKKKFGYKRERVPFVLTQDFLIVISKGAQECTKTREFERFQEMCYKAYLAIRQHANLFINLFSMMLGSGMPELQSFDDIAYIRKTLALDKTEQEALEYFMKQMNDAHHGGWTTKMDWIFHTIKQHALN

[21] = molecular target: Peripheral plasma membrane protein CASK (Homo sapiens) (UniProt O14936); test: Binding affinity to wild-type human partial length CASK (M1 to H315 residues) expressed in mammalian expression system assessed as residual binding level at 1 uM by Kinomescan method relative to control
[22] = molecular target: Tyrosine-protein kinase ITK/TSK (Homo sapiens) (UniProt Q08881); test: Binding affinity to wild-type human partial length ITK (R335 to L620 residues) expressed in bacterial expression system assessed as residual binding level at 1 uM by Kinomescan method relative to control
Sequence of Tyrosine-protein kinase ITK/TSK (Homo sapiens) (Q08881 whole entry, the tested form may be a part): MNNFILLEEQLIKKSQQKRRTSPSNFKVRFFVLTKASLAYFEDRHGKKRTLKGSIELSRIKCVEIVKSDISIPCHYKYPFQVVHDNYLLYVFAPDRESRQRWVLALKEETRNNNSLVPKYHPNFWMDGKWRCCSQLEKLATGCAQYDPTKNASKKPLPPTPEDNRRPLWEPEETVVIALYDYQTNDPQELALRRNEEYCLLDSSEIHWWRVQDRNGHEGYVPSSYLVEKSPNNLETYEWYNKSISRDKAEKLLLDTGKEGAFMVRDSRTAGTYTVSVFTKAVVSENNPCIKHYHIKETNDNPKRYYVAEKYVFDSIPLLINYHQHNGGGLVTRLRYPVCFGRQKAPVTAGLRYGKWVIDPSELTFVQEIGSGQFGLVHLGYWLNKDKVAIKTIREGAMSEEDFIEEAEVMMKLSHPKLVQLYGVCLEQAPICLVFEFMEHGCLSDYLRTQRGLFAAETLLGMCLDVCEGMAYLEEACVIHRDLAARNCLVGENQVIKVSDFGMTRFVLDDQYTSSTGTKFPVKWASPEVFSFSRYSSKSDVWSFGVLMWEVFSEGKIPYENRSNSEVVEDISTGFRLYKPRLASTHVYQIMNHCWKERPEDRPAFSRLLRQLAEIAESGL

[23] = tested on: Serine/threonine-protein kinase B-raf (Homo sapiens), P15056 [V600E]; test: Binding affinity to human partial length BRAF V600E mutant (S429 to E741 residues) expressed in mammalian expression system assessed as residual binding level at 1 uM by Kinomescan method relative to control
[24] = molecular target: Cyclin-dependent kinase 15 (Homo sapiens) (UniProt Q96Q40); test: Binding affinity to wild-type human full length PFTAIRE2 (M1 to W384 residues) expressed in bacterial expression system assessed as residual binding level at 1 uM by Kinomescan method relative to control

Question: What does the source list for `CC(C)Nc1sc(C(=O)c2ccc(Cl)s2)c(N)c1C#N`?
Answer: Activity [1]: 100%; Activity [2]: 100%; Activity [3]: 59%; Activity [4]: 84%; Activity [5]: 97%; Activity [6]: 83%; Activity [7]: 62%; Activity [8]: 74%; Activity [9]: 100%; Activity [10]: 97%; Activity [11]: 95%; Activity [12]: 94%; Activity [13]: 91%; Activity [14]: 71%; Activity [15]: 95%; Activity [16]: 67%; Activity [17]: 96%; Activity [18]: 97%; Activity [19]: 75%; Activity [20]: 77%; Activity [21]: 100%; Activity [22]: 93%; Activity [23]: 97%; Activity [24]: 79%
